Key:
[1] = Ex vivo tissue uptake after the PET scan (gamma-counter); type: in vivo, Sprague-Dawley rats
Experimental: After the end of the PET scans (i.e., 98 ± 8 min after tracer injection), anesthetized animals were sacrificed by heart extirpation and dissected. Samples of brain and peripheral tissues were taken. All samples were weighed, and their radioactivity was measured in a gamma-counter.

[2] = Tracer metabolism in plasma and brain extract (radio-TLC); type: in vivo, rats; conditions: living rats
Experimental: Throughout the scan, arterial blood samples (15–19 samples; 0.10–0.15 mL each) were withdrawn from each rat through the arterial cannula. […] From each sample, 25 μL aliquots of whole blood were withdrawn. The rest was centrifuged at 3500 g for 5 min; 25 μL supernatant (plasma) aliquots were withdrawn and deproteinated with 75 μL of ice-cold acetonitrile. From the resulting 100 μL, 2–8 μL portions (i.e., 2–8 % of volume) were taken for thin layer chromatography analysis (radio-TLC) to assess radiometabolite content.
The radioactivity of the plasma and whole blood samples was measured using a well-type gamma-counter (LKB-1282-Compugamma, LKB Wallac).
Radio-TLC was performed on silica plates. Samples of the formulated tracers (diluted) were run along with deproteinated plasma samples to confirm the identity of the parent compound in plasma. Eluent systems used and TLC Rf values recorded are presented in Additional file 1: Table S1.
Another half of the brain was homogenized in 3 mL of ice-cold acetonitrile using Heidolph IDAX600 homogenizer at maximum speed. Homogenate was centrifuged at 3500g for 5 min, and the supernatant (containing >95 % total radioactivity) was analyzed by radio-TLC in the same way as described above for the plasma.

[3] = LogD measurement (n-octanol/phosphate buffer); type: physicochemical; conditions: n-octanol / 1 M phosphate buffer pH 7.4
Experimental: LogD of the tracers was measured using the radioactivity remaining on the HLB SPE cartridges after their elution with ethanol during the tracer formulation procedure (see above). The cartridge was dried with nitrogen for 5 min and eluted with at least 1.5 mL n-octanol. A 500 μL portion of octanol eluate was mixed with 500 μL of 1 M phosphate buffer (pH 7.4) and vigorously vortexed for 5 min. The mixture was then centrifuged at 17,000g for 10 min and 3 × 100 μL aliquots of organic and aqueous phase were loaded into a gamma-counter for radioactivity measurement. To correct for possible presence of radioactive impurities in the tracer, aliquots of organic and aqueous phases were later analyzed by radio-TLC, and the counts obtained from the gamma-counter were corrected according to the percentage of impurities found in aqueous and organic phases. LogD was calculated with the following formula: LogD=lgCPMorg×Xorgtracer/CPMaq×Xaqtracer,
where CPMorg is the mean radioactivity of the organic aliquots, Xorgtracer is the mean percentage of radioactivity accounting for intact tracer in organic aliquots (as determined from radio-TLC), and CPMaq and Xaqtracer are the corresponding values for the aqueous phase.
For each tracer batch used for logD determination, the experiment was performed in duplicate. LogD values are means calculated from at least two independent experiments.

[4] = raclopride 1 mg/kg, after PET scan

Ex vivo uptake, Adipose tissue ([1]; RAC): 0.10±0.05 SUV
Ex vivo uptake, Adrenal glands ([1]; RAC): 1.73±1.07 SUV
Ex vivo uptake, Bladder ([1]; RAC): 0.69±0.30 SUV
Ex vivo uptake, Blood cells ([1]; RAC): 0.05±0.04 SUV
Ex vivo uptake, Bone ([1]; RAC): 0.12±0.08 SUV
Ex vivo uptake, Bone marrow ([1]; RAC): 0.91±0.53 SUV
Ex vivo uptake, Caecum ([1]; RAC): 0.91±1.10 SUV
Ex vivo uptake, Duodenum ([1]; RAC): 22.8±36.6 SUV
Ex vivo uptake, Heart ([1]; RAC): 0.15±0.10 SUV
Ex vivo uptake, Kidney ([1]; RAC): 0.61±0.51 SUV
Ex vivo uptake, Large intestine ([1]; RAC): 1.20±1.48 SUV
Ex vivo uptake, Large intestine content ([1]; RAC): 0.06±0.04 SUV
Ex vivo uptake, Liver ([1]; RAC): 1.47±1.56 SUV
Ex vivo uptake, Lung ([1]; RAC): 1.19±0.40 SUV
Ex vivo uptake, Muscle ([1]; RAC): 0.15±0.11 SUV
Ex vivo uptake, Pancreas ([1]; RAC): 0.92±0.77 SUV
Ex vivo uptake, Plasma ([1]; RAC): 0.07±0.02 SUV
Ex vivo uptake, Prostate ([1]; RAC): 0.42±0.10 SUV
Ex vivo uptake, Small intestine ([1]; RAC): 11.1±18.4 SUV
Ex vivo uptake, Small intestine content ([1]; RAC): 60.5±104 SUV
Ex vivo uptake, Spleen ([1]; RAC): 1.62±1.15 SUV
Ex vivo uptake, Stomach ([1]; RAC): 1.73±0.75 SUV
Ex vivo uptake, Submandibular gland ([1]; RAC): 1.41±0.34 SUV
Ex vivo uptake, Testes ([1]; RAC): 0.04±0.01 SUV
Ex vivo uptake, Thymus ([1]; RAC): 0.43±0.15 SUV
Ex vivo uptake, Urine ([1]; RAC): 2.32±3.35 SUV
Ex vivo uptake, Whole blood ([1]; RAC): 0.12±0.08 SUV
Ex vivo uptake, Adipose tissue ([1]; SAL): 0.18±0.09 SUV
Ex vivo uptake, Adrenal glands ([1]; SAL): 1.53±0.58 SUV
Ex vivo uptake, Bladder ([1]; SAL): 0.23±0.05 SUV
Ex vivo uptake, Blood cells ([1]; SAL): 0.05±0.04 SUV
Ex vivo uptake, Bone ([1]; SAL): 0.14±0.03 SUV
Ex vivo uptake, Bone marrow ([1]; SAL): 0.98±0.36 SUV
Ex vivo uptake, Caecum ([1]; SAL): 0.15±0.10 SUV
Ex vivo uptake, Duodenum ([1]; SAL): 1.92±0.35 SUV
Ex vivo uptake, Heart ([1]; SAL): 0.11±0.04 SUV
Ex vivo uptake, Kidney ([1]; SAL): 0.40±0.10 SUV
Ex vivo uptake, Large intestine ([1]; SAL): 0.15±0.07 SUV
Ex vivo uptake, Large intestine content ([1]; SAL): 0.02±0.01 SUV
Ex vivo uptake, Liver ([1]; SAL): 0.86±0.23 SUV
Ex vivo uptake, Lung ([1]; SAL): 1.18±0.16 SUV
Ex vivo uptake, Muscle ([1]; SAL): 0.07±0.04 SUV
Ex vivo uptake, Pancreas ([1]; SAL): 0.75±0.27 SUV
Ex vivo uptake, Plasma ([1]; SAL): 0.14±0.11 SUV
Ex vivo uptake, Prostate ([1]; SAL): 0.38±0.15 SUV
Ex vivo uptake, Small intestine ([1]; SAL): 0.18±0.07 SUV
Ex vivo uptake, Small intestine content ([1]; SAL): 0.56±0.24 SUV
Ex vivo uptake, Spleen ([1]; SAL): 1.52±0.68 SUV
Ex vivo uptake, Stomach ([1]; SAL): 1.79±0.92 SUV
Ex vivo uptake, Submandibular gland ([1]; SAL): 1.51±0.26 SUV
Ex vivo uptake, Testes ([1]; SAL): 0.04±0.01 SUV
Ex vivo uptake, Thymus ([1]; SAL): 0.49±0.09 SUV
Ex vivo uptake, Urine ([1]; SAL): 0.69±0.33 SUV
Ex vivo uptake, Whole blood ([1]; SAL): 0.06±0.03 SUV
Ex vivo uptake, Brainstem [1, 4]: 0.03 ± 0.01 SUV
Ex vivo uptake, Cerebellum [1, 4]: 0.03 ± 0.01 SUV
Ex vivo uptake, Cortex [1, 4]: 0.03 ± 0.01 SUV
Ex vivo uptake, Hippocampus [1, 4]: 0.03 ± 0.01 SUV
Ex vivo uptake, Mean brain uptake [1, 4]: 0.03 ± 0.01 SUV
Ex vivo uptake, Olfactory bulbs [1, 4]: 0.03 ± 0.02 SUV
Ex vivo uptake, Parietal bone [1, 4]: 0.08 ± 0.03 SUV
Ex vivo uptake, Pituitary [1, 4]: 1.08 ± 0.27 SUV
Ex vivo uptake, Rest of brain [1, 4]: 0.03 ± 0.02 SUV
Ex vivo uptake, Striatum [1, 4]: 0.03 ± 0.01 SUV
Ex vivo uptake, Thalamus + hypothalamus [1, 4]: 0.03 ± 0.01 SUV
Ex vivo uptake, Brainstem ([1]; saline, after PET scan): 0.03 ± 0.004 SUV
Ex vivo uptake, Cerebellum ([1]; saline, after PET scan): 0.03 ± 0.01 SUV
Ex vivo uptake, Cortex ([1]; saline, after PET scan): 0.03 ± 0.003 SUV
Ex vivo uptake, Hippocampus ([1]; saline, after PET scan): 0.03 ± 0.02 SUV
Ex vivo uptake, Mean brain uptake ([1]; saline, after PET scan): 0.03 ± 0.01 SUV
Ex vivo uptake, Olfactory bulbs ([1]; saline, after PET scan): 0.03 ± 0.001 SUV
Ex vivo uptake, Parietal bone ([1]; saline, after PET scan): 0.09 ± 0.03 SUV
Ex vivo uptake, Pituitary ([1]; saline, after PET scan): 1.36 ± 0.30 SUV
Ex vivo uptake, Rest of brain ([1]; saline, after PET scan): 0.02 ± 0.02 SUV
Ex vivo uptake, Thalamus + hypothalamus ([1]; saline, after PET scan): 0.03 ± 0.01 SUV
Ex vivo uptake, Striatum ([1]; saline, after PET scan (98 ± 8 min p.i.)): 0.02 ± 0.02 SUV
metabolism in plasma [2]: more stable
logD [3]: 1.48 ± 0.002
SMILES: Oc1ccc2c(c1)O[C@@H](CNCCN1CCN(c3ccc(OCC[18F])cc3)CC1)CC2 [[^18F]FEt-AMC15, (R) 1-(4-(2-[^18F]fluoroethoxy)phenyl)-4-(4-(7-hydroxychroman-2-yl)-3-azabutyl)-piperazine]

— article PMC4512978, “Synthesis and evaluation in rats of homologous series of [^18F]-labeled dopamine D2/3 receptor agonists based on the 2-aminomethylchroman scaffold as potential PET tracers” (EJNMMI Research, 2015)
